Patent US20150183802A1, “TRICYCLIC SULFONAMIDE DERIVATIVES” (NOVARTIS AG, priority 2013, published 2015)

Molecular target: T1, hNav1.7 channels (Homo sapiens, UniProt Q15858)
T1 construct: host or cells: HEK293
Experiment: hNav1.7 channel in vitro patch-clamp assay
Assay type: cell-based
Settings: stable HEK293 cell line expressing hNav1.7; whole cell patch-clamp (QPatch HTX and/or conventional), room temperature; voltage protocol not given
Description: hNav1.7 Channel In Vitro Patch-Clamp Assay
Cells: Sable HEK293 (human embryonic kidney) cell line expressing hNav1.7 channels was used in the assay. The cell line was obtained from Millipore (Millipore Corporation, MA).
Patch-clamp recordings: The recordings were performed on QPatch HTX (Sophion Bioscience, Denmark) and/or conventional patch-clamp (Axon Multiclamp 700B systems, Molecular Devices, CA) platforms at room temperature, using whole cell patch-clamp techniques. The composition of extracellular solution was (in mM): HEPES 5, NaCl 40, KCl 3, CaCl2 1, MgCl2 1, Choline Chloride 100. Adjust pH to 7.2 with 1N NaOH, osmolarity to 300-310 mOsm with sucrose. The composition of intracellular solution was (in mM): HEPES 10, NaCl 10, Na2ATP 1, MgCl2 2, KF 135, EGTA 10. Adjust pH to 7.2 with 1N NaOH, osmolarity to 290-300 mOsm with sucrose.
For conventional patch-clamp, 35 mm culture dishes containing hNav1.7 cells were placed on the stage of an inverted microscope and continuously perfused with extracellular solution from a perfusion system (Biologic Rapid solution changer, RSC-160, ˜1 ml/min). […] The recordings were controlled by pCLAMP10 software. Test compounds were dissolved in 100% DMSO to make stock solutions for each test concentration, and then diluted into extracellular solution to achieve final concentration for testing. Final DMSO concentration was less than 0.3%. Two voltage protocols were used in hNav1.7 assay: for non-inactivated protocol, the sodium currents were elicited by a 2 ms pulse to −10 mV from a holding potential of −110 mV. For inactivated protocol, the holding potential was set at V1/2. The voltage was firstly stepped to −110 mV for 50 ms, then to −10 mV for 2 ms and then stepped back to holding potential. In both protocols the voltage command was given in every 10 s. Compound effect (% inhibition) was determined by difference in current amplitude before and after the application of test compounds. IC50 values were determined from concentration-response curves that were obtained with Hill fitting.
For QPatch HTX assay, hNav1.7 cells grown to 50%-80% confluence were rinsed with DPBS and dissociated with Tryple (Invitrogen, 12605-010). The dissociated cells were then mixed with extracellular solution. After centrifuge, the cells were resuspended in extracellular solution and used in the QPatch experiment. The whole-cell protocols, voltage protocols and application protocols were established with QPatch Assay Software 3.4 (Sophion Bioscience, Denmark). Only the inactivated protocol was used in the QPatch assay.

T1 sequence (Q15858 whole entry): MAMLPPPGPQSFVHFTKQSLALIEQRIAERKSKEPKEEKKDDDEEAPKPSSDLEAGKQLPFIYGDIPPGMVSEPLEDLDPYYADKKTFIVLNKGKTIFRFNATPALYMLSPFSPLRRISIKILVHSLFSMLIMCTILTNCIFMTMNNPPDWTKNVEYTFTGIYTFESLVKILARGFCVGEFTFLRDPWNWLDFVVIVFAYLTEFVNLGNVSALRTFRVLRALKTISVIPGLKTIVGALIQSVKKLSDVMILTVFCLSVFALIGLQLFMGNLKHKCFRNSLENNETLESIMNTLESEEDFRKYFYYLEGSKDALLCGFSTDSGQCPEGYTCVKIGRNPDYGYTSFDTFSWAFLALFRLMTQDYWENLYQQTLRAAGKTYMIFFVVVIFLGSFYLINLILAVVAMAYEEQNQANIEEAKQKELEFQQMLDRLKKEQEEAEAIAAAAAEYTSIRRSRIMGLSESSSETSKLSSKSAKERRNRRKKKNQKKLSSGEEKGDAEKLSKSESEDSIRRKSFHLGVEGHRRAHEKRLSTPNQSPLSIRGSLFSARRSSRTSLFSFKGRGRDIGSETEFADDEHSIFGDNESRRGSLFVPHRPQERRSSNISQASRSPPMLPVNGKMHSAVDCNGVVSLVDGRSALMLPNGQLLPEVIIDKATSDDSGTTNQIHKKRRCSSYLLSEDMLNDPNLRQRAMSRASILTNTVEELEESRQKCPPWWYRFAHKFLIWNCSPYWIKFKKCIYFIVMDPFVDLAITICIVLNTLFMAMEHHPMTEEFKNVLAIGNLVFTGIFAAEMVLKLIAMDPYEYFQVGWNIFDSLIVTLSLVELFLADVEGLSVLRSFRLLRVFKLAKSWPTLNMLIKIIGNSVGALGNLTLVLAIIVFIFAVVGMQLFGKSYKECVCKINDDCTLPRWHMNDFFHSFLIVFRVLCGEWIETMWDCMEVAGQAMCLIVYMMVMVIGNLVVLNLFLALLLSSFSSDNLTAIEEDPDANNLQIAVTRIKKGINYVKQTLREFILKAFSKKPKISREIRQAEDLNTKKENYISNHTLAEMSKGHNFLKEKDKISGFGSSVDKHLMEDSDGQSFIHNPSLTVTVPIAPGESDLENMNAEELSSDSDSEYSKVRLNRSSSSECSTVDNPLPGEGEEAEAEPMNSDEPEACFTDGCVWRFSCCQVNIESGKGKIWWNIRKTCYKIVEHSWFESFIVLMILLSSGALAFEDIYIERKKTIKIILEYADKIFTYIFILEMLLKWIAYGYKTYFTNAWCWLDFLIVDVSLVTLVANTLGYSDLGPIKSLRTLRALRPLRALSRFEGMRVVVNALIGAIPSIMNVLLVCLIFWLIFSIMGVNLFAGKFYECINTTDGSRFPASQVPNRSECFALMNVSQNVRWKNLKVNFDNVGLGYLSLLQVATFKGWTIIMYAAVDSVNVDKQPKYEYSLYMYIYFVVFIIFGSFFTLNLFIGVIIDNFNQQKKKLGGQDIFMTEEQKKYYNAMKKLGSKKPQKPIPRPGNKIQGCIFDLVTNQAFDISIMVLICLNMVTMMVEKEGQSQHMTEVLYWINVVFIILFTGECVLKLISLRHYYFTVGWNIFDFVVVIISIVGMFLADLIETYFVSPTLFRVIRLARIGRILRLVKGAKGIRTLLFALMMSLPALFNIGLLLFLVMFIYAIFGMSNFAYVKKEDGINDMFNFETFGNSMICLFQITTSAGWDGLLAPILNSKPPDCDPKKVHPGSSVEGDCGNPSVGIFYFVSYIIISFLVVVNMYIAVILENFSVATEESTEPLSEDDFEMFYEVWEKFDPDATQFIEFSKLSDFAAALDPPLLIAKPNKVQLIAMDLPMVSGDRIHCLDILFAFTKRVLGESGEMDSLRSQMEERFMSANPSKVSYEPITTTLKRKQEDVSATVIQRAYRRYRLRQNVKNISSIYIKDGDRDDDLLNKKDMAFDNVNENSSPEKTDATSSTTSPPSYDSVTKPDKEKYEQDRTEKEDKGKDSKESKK

| SMILES | IC50 |
| --- | --- |
| O=C1N(c2cnc(OCC3CC3)c(Cl)c2)c2cc3onc(NS(=O)(=O)C4CC4)c3cc2C12CC2 [Example 28, N-(7′-(5-chloro-6-(cyclopropylmethoxy)pyridin-3-yl)-6′-oxo-6′,7′-dihydrospiro[cyclopropane-1,5′-isoxazolo[4,5-f]indol]-3′-yl)cyclopropanesulfonamide] | 200 nM |
| Cc1nn(-c2cnc(OCC(C)C)c(Cl)c2)c2cc3onc(NS(=O)(=O)C4CC4)c3cc12 [Example 45, N-(7-(5-chloro-6-isobutoxypyridin-3-yl)-5-methyl-7H-isoxazolo[4,5-f]indazol-3-yl)cyclopropanesulfonamide] | 30 nM |
| CS(=O)(=O)Nc1noc2cc3c(cc12)C1(CC1)C(=O)N3c1ccc(Cl)c(Cl)c1 [Example 31, N-(7′-(3,4-dichlorophenyl)-6′-oxo-6′,7′-dihydrospiro[cyclopropane-1,5′-isoxazolo[4,5-f]indol]-3′-yl)methanesulfonamide] | 800 nM |
| O=C1N(c2cnc(OCC(F)(F)F)c(Cl)c2)c2cc3onc(NS(=O)(=O)C4CC4)c3cc2C12CC2 [Example 20, N-(7′-(5-chloro-6-(2,2,2-trifluoroethoxyl)pyridin-3-yl)-6′-oxo-6′,7′-dihydrospiro[cyclopropane-1,5′-isoxazolo[4,5-f]indol]-3′-yl)cyclopropanesulfonamide] | 500 nM |
| CC(C)COc1ncc(N2C(=O)C3(CC3)c3cc4c(NS(=O)(=O)c5ccccc5)noc4cc32)cc1Cl [Example 6, N-(7′-(5-chloro-6-isobutoxypyridin-3-yl)-6′-oxo-6′,7′-dihydrospiro[cyclopropane-1,5′-isoxazolo[4,5-f]indol]-3′-yl)benzenesulfonamide] | 3000 nM |
| CC(C)COc1ncc(-c2nccc3cc4c(NS(=O)(=O)N(C)C)noc4cc23)cc1Cl [Example 53, N-(8-(5-chloro-6-isobutoxypyridin-3-yl)isoxazolo[4,5-g]isoquinolin-3-yl)N—N-dimethylsulfamide] | 1070 nM |
| O=C1N(c2cnc(OC3CCCCC3)c(Cl)c2)c2cc3onc(NS(=O)(=O)C4CC4)c3cc2C12CC2 [Example 26, N-(7′-(5-chloro-6-(cyclohexyloxy)pyridin-3-yl)-6′-oxo-6′,7′-dihydrospiro[cyclopropane-1,5′-isoxazolo[4,5-f]indol]-3′-yl)cyclopropanesulfonamide] | 110 nM |
| CS(=O)(=O)Nc1noc2cc3c(cc12)C1(CC1)C(=O)N3c1cnc(OCC2CCC(C(F)(F)F)CC2)c(Cl)c1 (stereo not shown) [Example 14, N-(7′-(5-chloro-6-((4-(trifluoromethyl)cyclohexyl)methoxy)pyridin-3-yl)-6′-oxo-6′,7′-dihydrospiro[cyclopropane-1,5′-isoxazolo[4,5-f]indol]-3′-yl)methanesulfonamide] | 200 nM |
| CC(C)COc1ncc(N2C(=O)C3(CC3)c3cc4c(NS(=O)(=O)C(F)(F)F)noc4cc32)cc1Cl [Example 5, N-(7′-(5-chloro-6-isobutoxypyridin-3-yl)-6′-oxo-6′,7′-dihydrospiro[cyclopropane-1,5′-isoxazolo[4,5-f]indol]-3′-yl)-1,1,1-trifluoromethanesulfonamide] | 430 nM |
| CC(C)COc1c(F)cc(N2C(=O)C3(CC3)c3cc4c(NS(=O)(=O)C5CC5)noc4cc32)cc1Cl [Example 33, N-(7′-(3-chloro-5-fluoro-4-isobutoxyphenyl)-6′-oxo-6′,7′-dihydrospiro[cyclopropane-1,5′-isoxazolo[4,5-f]indol]-3′-yl)cyclopropanesulfonamide] | 100 nM |
| O=C1N(c2cnc(OC(F)F)c(Cl)c2)c2cc3onc(NS(=O)(=O)C4CC4)c3cc2C12CC2 [Example 30, N-(7′-(5-chloro-6-(difluoromethoxy)pyridin-3-yl)-6′-oxo-6′,7′-dihydrospiro[cyclopropane-1,5′-isoxazolo[4,5-f]indol]-3′-yl)cyclopropanesulfonamide] | 630 nM |
| CC(C)COc1ncc(N2C(=O)C3(CC3)c3cc4c(NS(=O)(=O)C5CC5)noc4cc32)cc1Cl [Example 2, N-(7′-(5-chloro-6-isobutoxypyridin-3-yl)-6′-oxo-6′,7′-dihydrospiro[cyclopropane-1,5′-isoxazolo[4,5-f]indol]-3′-yl)cyclopropanesulfonamide] | 80 nM |
| CS(=O)(=O)Nc1noc2cc3c(cc12)C1(CC1)C(=O)N3c1cnc(OCC2CCC(F)(F)CC2)c(Cl)c1 [Example 13, N-(7′-(5-chloro-6-((4,4-difluorocyclohexyl)methoxy)pyridin-3-yl)-6′-oxo-6′,7′-dihydrospiro[cyclopropane-1,5′-isoxazolo[4,5-f]indol]-3′-yl)methanesulfonamide] | 300 nM |
| CC(C)COc1ncc(-n2c(C(F)(F)F)cc3cc4c(NS(C)(=O)=O)noc4cc32)cc1Cl [Example 40b, N-(7-(5-chloro-6-isobutoxypyridin-3-yl)-6-(trifluoromethyl)-7H-isoxazolo[4,5-f]indol-3-yl)methanesulfonamide] | 40 nM |
| CC(C)COc1ncc(-c2nccc3cc4c(NS(C)(=O)=O)noc4cc23)cc1Cl [Example 51, N-(8-(5-chloro-6-isobutoxypyridin-3-yl)isoxazolo[4,5-g]isoquinolin-3-yl)methanesulfonamide] | 300 nM |
| Cc1nn(-c2cnc(OCC(C)C)c(Cl)c2)c2cc3onc(NS(C)(=O)=O)c3cc12 [Example 44, N-(7-(5-chloro-6-isobutoxypyridin-3-yl)-5-methyl-7H-isoxazolo[4,54]indazol-3-yl)methanesulfonamide] | 100 nM |
| CC(C)COc1ncc(N2C(=O)C(C)(C)c3cc4c(NS(=O)(=O)C5CC5)noc4cc32)cc1Cl [Example 36, N-(7-(5-chloro-6-isobutoxypyridin-3-yl)-5,5-dimethyl-6-oxo-6,7-dihydro-5H-isoxazolo[4,5-f]indol-3-yl)cyclopropanesulfonamide] | 70 nM |
| COc1ncc(N2C(=O)C3(CC3)c3cc4c(NS(=O)(=O)C5CC5)noc4cc32)cc1Cl [Example 29, N-(7′-(5-chloro-6-methoxypyridin-3-yl)-6′-oxo-6′,7′-dihydrospiro[cyclopropane-1,5′-isoxazolo[4,5-f]indol]-3′-yl)cyclopropanesulfonamide] | 800 nM |
| C[C@H](Oc1ncc(N2C(=O)C3(CC3)c3cc4c(NS(=O)(=O)C5CC5)noc4cc32)cc1Cl)c1ccc(F)cc1 [Example 18, (S)—N-(7′-(5-chloro-6-(1-(4-fluorophenyl)ethoxy)pyridin-3-yl)-6′-oxo-6′,7′-dihydrospiro[cyclopropane-1,5′-isoxazolo[4,5-f]indol]-3′-yl)cyclopropanesulfonamide] | 100 nM |
| CC(C)COc1ncc(-c2cncc3cc4c(NS(C)(=O)=O)noc4cc23)cc1Cl [Example 57, N-(8-(5-chloro-6-isobutoxypyridin-3-yl)isoxazolo[5,4-g]isoquinolin-3-yl)methanesulfonamide] | 2360 nM |
| CC1(COc2ncc(N3C(=O)C4(CC4)c4cc5c(NS(=O)(=O)C6CC6)noc5cc43)cc2Cl)CC1 [Example 16, N-(7′-(5-chloro-6-((1-methylcyclopropyl)methoxy)pyridin-3-yl)-6′-oxo-6′,7′-dihydrospiro[cyclopropane-1,5′-isoxazolo[4,5-f]indol]-3′-yl)cyclopropanesulfonamide] | 60 nM |
| CC(C)COc1ncc(N2C(=O)C3(CCCCC3)c3cc4c(NS(=O)(=O)C5CC5)noc4cc32)cc1Cl [Example 39, N-(7′-(5-chloro-6-isobutoxypyridin-3-yl)-6′-oxo-6′,7′-dihydrospiro[cyclohexane-1,5′-isoxazolo[4,5-f]indol]-3′-yl)cyclopropanesulfonamide] | 700 nM |
| CC(C)COc1ncc(-c2cccc3cc4c(NS(=O)(=O)C5CC5)noc4cc23)cc1Cl [Example 58, N-(8-(5-chloro-6-isobutoxypyridin-3-yl)naphtho[2,3-d]isoxazol-3-yl)cyclopropanesulfonamide] | 10 nM |
| CCC(C)Oc1ncc(N2C(=O)C3(CC3)c3cc4c(NS(=O)(=O)C5CC5)noc4cc32)cc1Cl (stereo not shown) [Example 24, N-(7′-(6-(sec-butoxy)-5-chloropyridin-3-yl)-6′-oxo-6′,7′-dihydrospiro[cyclopropane-1,5′-isoxazolo[4,5-f]indol]-3′-yl)cyclopropanesulfonamide] | 70 nM |
| CS(=O)(=O)Nc1noc2cc3c(cc12)C1(CC1)C(=O)N3c1cnc(OCC2CCCCC2)c(Cl)c1 [Example 11, N-(7′-(5-chloro-6-(cyclohexylmethoxy)pyridin-3-yl)-6′-oxo-6′,7′-dihydrospiro[cyclopropane-1,5′-isoxazolo[4,5-f]indol]-3′-yl)methanesulfonamide] | 100 nM |
